Tests used:
[1] = test system: SMMC-7721 (human liver cancer); assay: MTT antiproliferative assay, SMMC-7721; assay type: cell-based; conditions: 72 h, mean ± SD
Procedure: Data represent the mean values ± standard deviation (SD) of independent experiments performed in triplicate.
All of the cells were purchased from the American Type Culture Collection (ATCC, Manassas, VA).
The antiproliferative activities in vitro of Crolibulin and all the target compounds were determined by an MTT assay. Briefly, cells were seeded into 96-well plates at a density of 1–3 × 10^4/well (depends on the cell growth rate). 24 h later, triplicate wells were treated with media and the agents. […] After 4 h of incubation, the medium with MTT was removed, and […] of DMSO was added to each well. The plates were gently agitated until the purple formazan crystals were dissolved, and the OD490 was determinedusing a microplate reader (MK3, Thermo, Germany). The data were calculated and plotted as the percent viability compared to the control.

[2] = test system: A549 (human lung carcinoma); assay: MTT antiproliferative assay, A549; assay type: cell-based; conditions: 72 h, mean ± SD
Procedure: (§1) To evaluate the antiproliferative activity, all synthesized derivatives (5a–5v and 7a–7h) were investigated for their activity in vitro against a panel of cancer cell lines including HT-29 (human colon cancer), H460 (human lung cancer), A549 (human lung carcinoma), MKN-45 (human gastric cancer) and SMMC-7721 (human liver cancer) by MTT assay. CA-4 and Crolibulin were served as positive control, and the results expressed as half-maximal inhibitory concentration (IC50). IC50 values are the concentrations that cause 50% inhibition of cancer cell growth (μM). Data represent the mean values ± standard deviation (SD) of independent experiments performed in triplicate.
(§2) Cell lines and culture conditions.The human colon carcinoma cell line HT-29, the human pulmonary carcinoma cell line A549, the human gastric carcinoma cell line MKN-45, the human breast cancer cell line MDA-MB-231 and human heptocarcinoma cellline SMMC-7721were cultured in RPMI-1640 mediumcontaining 10% FBS, 100 U/mL streptomycin and 100 U/mL penicillinat 37 °C in humidified atmosphere with 5% CO2. All of the cells were purchased from the American Type Culture Collection (ATCC, Manassas, VA).
(§3) The antiproliferative activities in vitro of Crolibulin and all the target compounds were determined by an MTT assay. Briefly, cells were seeded into 96-well plates at a density of 1–3 × 10^4/well (depends on the cell growth rate). 24 h later, triplicate wells were treated with media and the agents. After 72 h ofincubation at 37 °C in 5% CO2, the drug containing medium wasremoved and replaced by […] of fresh medium with 5 mg/mLMTT solution. After 4 h of incubation, the medium with MTT was removed, and […] of DMSO was added to each well. The plates were gently agitated until the purple formazan crystals were dissolved, and the OD490 was determinedusing a microplate reader (MK3, Thermo, Germany). The data were calculated and plotted as the percent viability compared to the control. The 50% inhibitory concentration (IC50) was defined as theconcentration that reduced the absorbance of the untreated wells by 50% of the vehicle in the MTT assay.

H460 (human lung cancer) = assay: MTT antiproliferative assay, H460; assay type: cell-based; conditions: for IC50: MTT, 72 h, mean ± SD
Procedure: as §1, §3

[3] = test system: MKN-45 (human gastric cancer); assay: MTT antiproliferative assay, MKN-45; assay type: cell-based; conditions: 72 h, mean ± SD, read-out: IC50 (μM) ±SD MKN45
Procedure: as §1, §2, §3

[4] = test system: HT-29 (human colon cancer); assay: MTT antiproliferative assay, HT-29; assay type: cell-based; conditions: for IC50: Homo sapiens, HT-29, MTT, 72 h, mean ± SD, read-out: IC50 (μM) ±SD HT29
Procedure: as §1, §2, §3

SMILES | melting point | IC50 [1] | IC50 [2] | IC50 (H460 (human lung cancer); Homo sapiens, NCI-H460, 72 h) | IC50 [3] | IC50 [4] | IC50 (H460 (human lung cancer)) | fold more potent than 5a on HT-29 cell ([4]; ratio of IC50 values) | fold more active in H460 than 5h (H460 (human lung cancer); ratio of IC50 values) | IC50 (H460 (human lung cancer); Homo sapiens, NCI-H460)
N#Cc1c(-c2ccccc2)cc(-c2c[nH]c3ccccc23)n2ccnc12 [5a, 5-(1H-indol-3-yl)-7-phenylimidazo[1,2-a]pyridine-8-carbonitrile] | 338.3 to 339.7 °C | 89.4 ± 2.6 µM | 86.4 ± 7.33 µM | 2.79 ± 0.52 µM | 79.7 ± 8.1 µM | 0.3 ± 0.04 µM |  |  |  | 
COc1cccc(-c2cc(-c3c[nH]c4ccccc34)n3ccnc3c2C#N)c1 [5c, 5-(1H-indol-3-yl)-7-(3-methoxyphenyl)imidazo[1,2-a]pyridine-8-carbonitrile] | 316.5 to 318.7 °C | 76.2 ± 8.98 µM | 12.2 ± 1.89 µM | 17.5 ± 1.53 µM | 1.24 ± 0.08 µM | 0.24 ± 0.01 µM |  |  |  | 
COc1ccc(-c2cc(-c3c[nH]c4ccccc34)n3ccnc3c2C#N)cc1 [5d, 5-(1H-indol-3-yl)-7-(4-methoxyphenyl)imidazo[1,2-a]pyridine-8-carbonitrile] | 294.7 to 295.5 °C | 71.5 ± 9.43 µM | 15.5 ± 2.13 µM | 9.61 ± 0.76 µM | 1.64 ± 0.07 µM | 0.43 ± 0.03 µM |  |  |  | 
N#Cc1c(-c2cccc(Br)c2)cc(-c2c[nH]c3ccccc23)n2ccnc12 [5g, 7-(3-bromophenyl)-5-(1H-indol-3-yl)imidazo[1,2-a]pyridine-8-carbonitrile] | 321.9 to 324.4 °C | 79.2 ± 6.87 µM | > 100 µM | 6.89 ± 0.67 µM | 64 ± 7.14 µM | > 100 µM |  |  |  | 
N#Cc1c(-c2ccc(Br)cc2)cc(-c2c[nH]c3ccccc23)n2ccnc12 [5h, 7-(4-bromophenyl)-5-(1H-indol-3-yl)imidazo[1,2-a]pyridine-8-carbonitrile] | 307.8 to 309.5 °C | 53.5 ± 7.76 µM | 8.54 ± 0.93 µM | 1.16 µM | 2.76 ± 0.47 µM | 0.12 ± 0.02 µM | 0.95 ± 0.03 µM | about 2.5 fold |  | 
N#Cc1c(-c2ccc(F)cc2F)cc(-c2c[nH]c3ccccc23)n2ccnc12 [5i, 7-(2,4-difluorophenyl)-5-(1H-indol-3-yl)imidazo[1,2-a]pyridine-8-carbonitrile] | 340.3 to 346.2 °C | 13.6 ± 2.38 µM | 0.12 ± 0.03 µM | 0.04 ± 0.001 µM | 0.03 ± 0.006 µM | 0.08 ± 0.001 µM |  |  | about 29 fold | 
N#Cc1c(-c2ccc(F)c(F)c2)cc(-c2c[nH]c3ccccc23)n2ccnc12 [5j, 7-(3,4-difluorophenyl)-5-(1H-indol-3-yl)imidazo[1,2-a]pyridine-8-carbonitrile] | 341.6 to 343.8 °C | 18.5 ± 2.76 µM |  | 0.076 ± 0.01 µM | 1.43 ± 0.12 µM | 0.03 ± 0.009 µM |  |  |  | 
N#Cc1c(-c2ccc(O)c(Br)c2)cc(-c2c[nH]c3ccccc23)n2ccnc12 [5l, 7-(3-bromo-4-hydroxyphenyl)-5-(1H-indol-3-yl)imidazo[1,2-a]pyridine-8-carbonitrile] | 309.2 to 312.3 °C | 80.2 ± 7.54 µM | > 100 µM | 1.07 ± 0.12 µM | 10.7 ± 1.85 µM | 0.92 ± 0.08 µM |  |  |  | 
N#Cc1c(-c2cc(Br)c(O)c(Br)c2)cc(-c2c[nH]c3ccccc23)n2ccnc12 [5m, 7-(3,5-dibromo-4-hydroxyphenyl)-5-(1H-indol-3-yl)imidazo[1,2-a]pyridine-8-carbonitrile] | 290.5 to 294.2 °C | 20.5 ± 3.53 µM | 2.45 ± 0.37 µM | 1.15 ± 0.13 µM | 18.3 ± 2.13 µM | 2.13 ± 0.12 µM |  |  |  | 
COc1cc(-c2cc(-c3c[nH]c4ccccc34)n3ccnc3c2C#N)c(Br)cc1O [5n, 7-(2-bromo-4-hydroxy-5-methoxyphenyl)-5-(1H-indol-3-yl)imidazo[1,2-a]pyridine-8-carbonitrile] | 327.7 to 330 °C | 97.2 ± 6.54 µM | 80.2 ± 9.68 µM | 9.61 ± 0.74 µM | 14.5 ± 2.43 µM | 1.16 ± 0.13 µM |  |  |  | 
N#Cc1c(-c2ccc(O)c(O)c2O)cc(-c2c[nH]c3ccccc23)n2ccnc12 [5p, 5-(1H-indol-3-yl)-7-(2,3,4-trihydroxyphenyl)imidazo[1,2-a]pyridine-8-carbonitrile] | 297.8 to 301.4 °C | 10.4 ± 1.64 µM | 1.18 ± 0.21 µM | 0.25 ± 0.031 µM | 9.67 ± 0.73 µM | 1.48 ± 0.27 µM |  |  |  | 
COc1cc(OC)c(OC)c(-c2cc(-c3c[nH]c4ccccc34)n3ccnc3c2C#N)c1 [5q, 5-(1H-indol-3-yl)-7-(2,3,5-trimethoxyphenyl)imidazo[1,2-a]pyridine-8-carbonitrile] | 302.7 to 304.8 °C | 27.4 ± 2.32 µM | 1.75 ± 0.13 µM |  | 1.74 ± 0.15 µM | 0.46 ± 0.03 µM |  |  |  | 
N#Cc1c(-c2ccccc2)cc(-c2c[nH]c3ccc(Br)cc23)n2ccnc12 [5r, 5-(5-bromo-1H-indol-3-yl)-7-phenylimidazo[1,2-a]pyridine-8-carbonitrile] | 337.9 to 342.4 °C | > 100 µM | 67.3 ± 7.43 µM | 11.4 ± 1.68 µM | 7.38 ± 0.63 µM | 1.74 ± 0.14 µM |  |  |  | 
N#Cc1c(-c2ccccc2F)cc(-c2c[nH]c3ccc(Br)cc23)n2ccnc12 [5s, 5-(5-bromo-1H-indol-3-yl)-7-(2-fluorophenyl)imidazo[1,2-a]pyridine-8-carbonitrile] | 301.7 to 304.6 °C | > 100 µM | 67.3 ± 4.59 µM | 17.2 ± 1.34 µM | 31.2 ± 5.79 µM | 2.86 ± 0.38 µM |  |  |  | 
N#Cc1c(-c2ccccc2Cl)cc(-c2c[nH]c3ccc(Br)cc23)n2ccnc12 [5t, 5-(5-bromo-1H-indol-3-yl)-7-(2-chlorophenyl)imidazo[1,2-a]pyridine-8-carbonitrile] | 302.2 to 306.8 °C | > 100 µM | > 100 µM | 80.7 ± 6.98 µM | 56.8 ± 4.29 µM | 0.58 ± 0.06 µM |  |  |  | 
N#Cc1c(-c2ccc(Br)cc2)cc(-c2c[nH]c3ccc(Br)cc23)n2ccnc12 [5u, 5-(5-bromo-1H-indol-3-yl)-7-(4-bromophenyl)imidazo[1,2-a]pyridine-8-carbonitrile] | 317.2 to 321.8 °C | 79.3 ± 5.14 µM | 21.4 ± 2.58 µM | 1.93 ± 0.33 µM | 38.1 ± 4.42 µM | 0.73 ± 0.09 µM |  |  |  | 
N#Cc1c(-c2ccc(F)cc2Cl)cc(-c2c[nH]c3ccc(Br)cc23)n2ccnc12 [5v, 5-(5-bromo-1H-indol-3-yl)-7-(2-chloro-4-fluorophenyl)imidazo[1,2-a]pyridine-8-carbonitrile] | 320.8 to 323.2 °C | 56.3 ± 4.87 µM | 3.57 ± 0.23 µM | 2.13 ± 0.24 µM | 7.35 ± 0.54 µM | 0.26 ± 0.03 µM |  |  |  | 
CNCc1cn2c(-c3c[nH]c4ccccc34)cc(-c3ccc(F)cc3Cl)c(C#N)c2n1 [7a, 7-(2-chloro-4-fluorophenyl)-5-(1H-indol-3-yl)-2-((methylamino)methyl)imidazo[1,2-a]pyridine-8-carbonitrile] | 219.5 to 223.5 °C | 27 ± 3.06 µM | 5.34 ± 0.67 µM | 1.29 ± 0.21 µM | 12.2 ± 1.89 µM | 0.04 ± 0.001 µM |  |  |  | 
COc1cc([C@H]2C(C#N)=C(N)Oc3c2ccc(N)c3N)cc(Br)c1OC [Crolibulin, reference compound] |  |  |  |  | 0.17 ± 0.03 µM | 0.52 ± 0.02 µM |  |  |  | 0.03 ± 0.007 µM

Source: PMC5327470, “Discovery and Optimization of Novel 5-Indolyl-7-arylimidazo[1,2-a]pyridine-8-carbonitrile Derivatives as Potent Antitubulin Agents Targeting Colchicine-binding Site” (Scientific Reports, 2017)
